According to the supplement of paper PMC10307832:

Key:
Experiment in all cases: relative viability (nuclei count vs DMSO), 5 days (fraction); higher = more cells survive
[1] = compound: CC(C)C[C@H](NC(=O)[C@H](Cc1ccccc1)NC(=O)c1cnccn1)B(O)O [Bortezomib] + CS(=O)(=O)CCNCc1ccc(-c2ccc3ncnc(Nc4ccc(OCc5cccc(F)c5)c(Cl)c4)c3c2)o1 [Lapatinib] (partner 2 µM)
Method in brief: (§1)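 Lung cancer cell lines were pin-tool dosed in 1536-well plates on the day after seeding, with either a lone drug or a fixed anchor-drug dose plus five library-drug doses (not always all listed) in √10 steps. Nuclei were counted on 4× images after 5 days. Relative viability is the ratio of treated-well to vehicle-well nuclei counts, with each value a median of duplicate plates.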

[2] = compound: CC1=CC(=NN1)NC2=CC(=NC(=N2)/C=C/C3=CC=CC=C3)N4CCN(CC4)C + N=C(N)NC(=N)NCCc1ccccc1 [Phenformin] (partner 250 µM)
Method in brief: as §1

[3] = compound: CC1=CC(=NN1)NC2=CC(=NC(=N2)/C=C/C3=CC=CC=C3)N4CCN(CC4)C + COc1cc2c(Oc3ccc(NC(=O)C4(C(=O)Nc5ccc(F)cc5)CC4)cc3F)ccnc2cc1OCCCN1CCOCC1 [Foretinib] (partner 0.25 µM)
Method in brief: as §1

[4] = compound: COC1=CC(c2cc3ccccc3[nH]2)=N/C1=C\c1[nH]c(C)cc1C [Obatoclax] + CC(C)C[C@H](NC(=O)[C@H](Cc1ccccc1)NC(=O)c1cnccn1)B(O)O [Bortezomib] (partner 0.002 µM)
Method in brief: as §1

Row | Cell Line | relative viability ([1]; first compound 0.0002 µM) | relative viability ([1]; first compound 0.000632 µM) | relative viability ([1]; first compound 0.002 µM) | relative viability ([1]; first compound 0.006325 µM) | relative viability ([1]; first compound 0.02 µM) | relative viability ([2]; first compound 0.08 µM) | relative viability ([2]; first compound 0.253 µM) | relative viability ([2]; first compound 0.8 µM) | relative viability ([2]; first compound 2.53 µM) | relative viability ([2]; first compound 8 µM) | relative viability ([3]; first compound 0.08 µM) | relative viability ([3]; first compound 0.253 µM) | relative viability ([3]; first compound 0.8 µM) | relative viability ([3]; first compound 2.53 µM) | relative viability ([3]; first compound 8 µM) | relative viability ([4]; first compound 0.01 µM) | relative viability ([4]; first compound 0.03162 µM) | relative viability ([4]; first compound 0.1 µM) | relative viability ([4]; first compound 0.3162 µM) | relative viability ([4]; first compound 1 µM)
1 | PC-3 [JPC-3] | 0.469 | 0.453 | 0.49 | 0.364 | 0.16 | 0.456 | 0.475 | 0.498 | 0.472 | 0.437 | 1.01 | 1.1 | 1.02 | 0.87 | 0.493 | 0.905 | 0.789 | 0.815 | 0.827 | 0.977
2 | SW 1573 | 1.03 | 1.09 | 1.14 | 0.308 | 0.0835 | 0.412 | 0.337 | 0.319 | 0.152 | 0.0862 | 0.847 | 0.993 | 1.1 | 0.536 | 0.151 | 1.04 | 0.998 | 0.925 | 0.895 | 0.476
3 | NCI-H2228 | 0.986 | 0.816 | 0.438 | 0.115 | 0.119 | 0.286 | 0.284 | 0.238 | 0.066 | 0.0616 | 0.692 | 0.953 | 0.618 | 0.102 | 0.0419 | 0.96 | 1.01 | 1.25 | 0.626 | 0.367
4 | NCI-H1650 | 0.279 | 0.482 | 0.154 | 0.17 | 0.181 | 0.418 | 0.404 | 0.464 | 0.106 | 0.0916 | 1.07 | 1.4 | 1.33 | 0.153 | 0.133 | 0.208 | 0.198 | 0.196 | 0.19 | 0.197
5 | COR-L 105 | 0.358 | 0.354 | 0.334 | 0.344 | 0.349 | 0.453 | 0.495 | 0.469 | 0.213 | 0.17 | 0.841 | 1.47 | 1.02 | 0.334 | 0.215 | 0.989 | 0.782 | 0.777 | 0.432 | 0.335
6 | LU99A | 0.939 |  | 1.11 | 0.811 | 0.171 | 0.748 | 0.707 | 0.716 | 0.411 | 0.153 | 0.8 | 0.732 | 0.735 | 0.363 | 0.156 | 1.12 | 1.13 | 1.03 | 0.357 | 0.224
7 | H3255 | 0.261 | 0.209 | 0.24 | 0.191 | 0.179 | 0.369 | 0.362 | 0.684 | 0.341 | 0.27 | 0.799 | 1.1 | 0.822 | 0.756 | 0.631 | 0.764 | 0.784 | 0.725 | 0.762 | 0.793
8 | NCI-H1734 | 0.977 | 0.99 | 1.32 | 0.21 | 0.112 | 0.417 | 0.375 | 0.391 | 0.162 | 0.104 | 0.816 | 0.828 | 0.815 | 0.447 | 0.161 | 0.928 | 0.818 |  | 0.914 | 0.836
9 | NCI-H1915 | 0.94 | 0.944 | 0.932 | 0.973 | 0.0577 | 0.368 | 0.393 | 0.337 | 0.234 | 0.165 | 1.01 | 1.13 | 1.06 | 0.817 | 0.386 | 1.05 | 0.748 | 0.93 | 1.01 | 0.975
10 | NCI-H2009 | 0.583 | 0.812 | 0.968 | 0.0615 | 0.0663 | 0.501 | 0.503 | 0.492 | 0.27 | 0.148 | 1.22 | 1.22 | 1.23 | 0.493 | 0.217 | 1.01 | 1.12 | 0.764 | 0.395 | 0.203
11 | NCI-H1651 | 0.709 | 0.74 | 0.301 | 0.128 | 0.103 | 0.355 | 0.346 | 0.312 | 0.124 | 0.112 | 0.732 | 0.899 | 0.913 | 0.447 | 0.162 | 0.901 | 0.855 | 0.858 | 0.943 | 0.992
12 | HOP-62 | 0.953 | 1.01 | 1.04 | 0.283 | 0.0578 | 0.713 | 0.758 | 0.688 | 0.459 | 0.26 | 1.14 | 1.13 | 1.04 | 0.739 | 0.195 | 0.909 | 0.787 | 0.639 | 0.739 | 0.719
13 | CAL-12T | 0.683 | 0.617 | 0.561 | 0.246 | 0.201 | 0.608 | 0.489 | 0.442 | 0.17 | 0.109 | 1.09 | 1.17 | 0.908 | 0.293 | 0.162 | 0.969 | 1.02 | 0.915 | 0.697 | 0.567
14 | NCI-H3122 | 0.943 | 1.01 | 1.01 | 0.902 | 0.202 | 0.385 | 0.384 | 0.415 | 0.285 | 0.138 | 0.957 | 0.928 | 0.965 | 0.873 | 0.383 | 0.966 | 1.01 | 1.02 | 1.03 | 1.06
15 | PC-14 | 0.323 | 0.356 | 0.354 | 0.239 | 0.0862 | 0.628 | 0.618 | 0.567 | 0.166 | 0.064 | 0.974 | 1.09 | 0.534 | 0.869 | 0.398 | 0.782 | 0.947 | 0.777 | 0.798 | 0.283
16 | BEN | 0.72 | 0.74 | 0.61 | 0.339 | 0.114 | 0.228 | 0.269 | 0.259 | 0.236 | 0.196 | 0.639 | 0.675 | 0.715 | 0.377 | 0.182 | 0.826 | 0.735 | 0.356 | 0.734 | 0.838
